From paper PMC10305181, “A VEGFB-Based Peptidomimetic Inhibits VEGFR2-Mediated PI3K/Akt/mTOR and PLCγ/ERK Signaling and Elicits Apoptotic, Antiangiogenic, and Antitumor Activities” (Pharmaceuticals, 2023)
Bridge positions count the residues as written; N and C are the ends. Peptide text beside a SMILES is read from it.

What was measured:
[1] = body weight / tolerability of treated 4T1 tumor-bearing mice; format: in vivo; conditions: 0.2 mg·kg^−1 i.v. once every 2 days
Protocol: (§1) Figure 2 Loop formation is important for the antitumor activity of VGB3. (A) To investigate the efficacy of VGB3 peptides in vivo 13 days after transplantation of a 4T1 murine MCT into female BALB/c mice (the tumor volume ~150 mm^3), the treatment groups received 0.2 mg·kg^−1 (once every 2 days, i.v.) of either the C-VGB3 or L-VGB3 and the control group received PBS for 20 days. Error bars denote ± SEM. n = 6; **** p < 0.0001, ns = not significant; two-way ANOVA. (B) Investigation of C-VGB3 and L-VGB3 effects on mice weight. […] (C,D) Immunohistochemical (IHC) analyses of CD31 and Ki67 for the C-VGB3-, L-VGB3- and PBS-treated tumors. For IHC staining, the sections of tumor tissues were incubated with the primary mouse monoclonal antibodies for CD31 (1:2000 (v/v)) and Ki67 (5 µg·mL^−1). […] Photographs were taken at 40× magnification. Error bars denote ± SEM. n = 3; * 0.02 ≤ p ≤ 0.04, ns = not significant; one-way ANOVA.
The antitumor efficacy of the peptides was investigated as described previously. Thirteen days after implanting, tumor (~150 mm^3)-bearing mice were grouped randomly into control and treated animals (6/group). From day 13 to day 33, the treatment group received cyclic or linear VGB3 (0.2 mg·kg^−1), whereas the control group received an equal volume of PBS (i.v., once every two days). The volume of tumors was calculated as 0.52 × length × width^2. In addition, changes in the weight of animals were recorded every 2 days.

Ki67-positive cells = assay: Ki67 immunohistochemistry of 4T1 tumors (proliferation); format: in vivo, murine; conditions: 0.2 mg·kg^−1 i.v.; n = 3; p = 0.04 vs control
Protocol: as §1
For immunohistochemistry staining, deparaffinized tumor sections were incubated overnight at 4 °C with mouse monoclonal primary anti-Ki67 (5 µg·mL^−1) or anti-CD31 (1:2000 (v/v)). The antigens were detected using 3,3-diaminobenzidine. All images were captured and analyzed with an Olympus BX51 microscope (Olympus America, New York, NY, USA).

HUVECs = assay: TUNEL assay, HUVECs; format: cell-based, human; conditions: 0.40 μM, n = 3, p < 0.0001
Description: Periodic boundary conditions were used, and bonds were restrained by applying the LINCS algorithm to their equilibrium position. Initial structures were solvated with three-point model water molecules in a cubic box of 1.0 nm to fully cover the protein system in water, following periodic boundary conditions (PBC). The produced system for each peptide was neutralized through the “genion tool” plugin of the GROMACS package by adding ions Na+ and Cl−. Then, the system was minimized for 50000 iterations using the steepest descent (SD) algorithm and using velocity rescaling (modiﬁed Berendsen) temperature coupling and Parrinello-Rahman pressure coupling methods, simulated under an isothermal-isobaric ensemble (NPT) for 5 ns at a constant temperature, the pressure of 300 K, and 1 atm, respectively. The NVT and NPT equilibration was carried out for 50000 steps. The minimization and equilibration procedures were executed, and finally, one system of the peptide was subjected to a 200 ns production run of MD simulations utilizing 2 fs as the time step and coordinates of all atoms were recorded in the form of .trr GROMACS trajectory ﬁle every 10 ps.
2 × 10^3 HUVE or 4T1 cells were cultured in DMEM and RPMI-1640 media, respectively, supplemented with 10% (v/v) FBS overnight. Then, the cells were incubated in the media supplemented with 5% FBS, with PBS or C-VGB3 (0.40 μM). […]

Question: With `CC(C)C[C@@H]1NC(=O)CNC(=O)[C@H](CC(=O)O)NC(=O)[C@H](CC(=O)O)NC(=O)[C@@H]2CCCN2C(=O)[C@@H]2CCCN2C(=O)[C@H](CCCNC(=N)N)NC(=O)[C@@H](NC(=O)[C@@H](N)CCC(=O)O)CSSC[C@@H](C(=O)O)NC1=O` [C-VGB3] (H-ECRPPDDGLC-OH; disulfide 2-10) as the compound, how does the “toxicity at this dosage (weight gain)” value ([1]; three weeks) read?
Answer: not toxic

Question: And the “mice weight vs control groups” value ([1]; two-way ANOVA)?
Answer: no significant differences

Question: What about the “decrease in Ki67-positive cells” value (Ki67-positive cells) of the same compound?
Answer: 60%

Question: What about the TUNEL fluorescent labeling (HUVECs) of the same compound?
Answer: fluorescent-labeled more than control cells
